Data on 16 compounds can be found in patent publication US8026359B2, “Fungicidal heterocyclic amines” (E.I. du Pont de Nemours and Company, priority 2007, dated 2011).

Holding throughout (format): in vivo
One assay has as its system Septoria tritici. Kind of assay: Test D: wheat leaf blotch, preventive spray on wheat seedlings. As to conditions: 200 ppm, 100 = 100% disease control, 0 = no control relative to controls; for pest or weed control at 200 ppm: Zymoseptoria tritici, 504 h, read-out: Test D disease control rating. The source says: (§1) General protocol for preparing test suspensions for Tests A-R: The test compounds were first dissolved in acetone in an amount equal to 3% of the final volume and then suspended at the desired concentration (in ppm) in acetone and purified water (50/50 mix) containing 250 ppm of the surfactant Trem® 014 (polyhydric alcohol esters). The resulting test suspensions were then used in tests A-R. In Tests A-M, compounds were sprayed as a 200 ppm test suspension (equivalent to a rate of 500 g/ha) or as a 40 ppm test suspension to the point of runoff on the test plants. In Tests N-R, compounds were sprayed as a 100 g/ha test suspension (equivalent to a rate of 100 ppm) on the test plants at an application volume of 1000 L/ha. The test suspension was sprayed to the point of run-off on wheat seedlings.

In assay [1] the test system is Erysiphe graminis f. sp. tritici. Kind of assay: Test A: wheat powdery mildew, preventive spray on wheat seedlings. As to conditions: 200 ppm, 100 = 100% disease control, 0 = no control relative to controls; for pest or weed control at 200 ppm: Blumeria graminis, 192 h, read-out: Test A disease control rating.
Source text: as §1

For assay [2], the system named is Colletotrichum orbiculare. Kind of assay: Test I: cucumber Colletotrichum anthracnose, preventive spray on cucumber seedlings. The following applies: 100 = 100% disease control, 0 = no control relative to controls; for pest or weed control at 200 ppm: Colletotrichum orbiculare, 144 h, read-out: Test I disease control rating; for Test I disease control rating: 200 ppm.
Source text: as §1, with “cucumber” for “wheat”

In another assay the test system is Botrytis cinerea. Kind of assay: Test F: tomato Botrytis, preventive spray on tomato seedlings. The following applies: 200 ppm, 100 = 100% disease control, 0 = no control relative to controls; for pest or weed control at 200 ppm: Botrytis cinerea, 120 h, read-out: Test F disease control rating.
Source text: as §1, with “tomato” for “wheat”

The next assay concerns Septoria nodorum. As to the kind of experiment: Test C: wheat glume blotch, preventive spray on wheat seedlings. As to conditions: 200 ppm, 100 = 100% disease control, 0 = no control relative to controls; for pest or weed control at 200 ppm: Parastagonospora nodorum, 216 h, read-out: Test C disease control rating.
Source text: as §1

For assay [3], the system named is Puccinia recondita f. sp. tritici. As to the kind of experiment: Test B: wheat leaf rust, preventive spray on wheat seedlings. As to conditions: 200 ppm, 100 = 100% disease control, 0 = no control relative to controls; for pest or weed control at 200 ppm: Puccinia recondita, 192 h, read-out: Test B disease control rating.
Source text: as §1

A further assay has as its system Fusarium graminearum. As to the kind of experiment: whole plant or invertebrate. The following applies: for pest or weed control at 200 ppm: Fusarium graminearum, in Triticum aestivum, 192 h, read-out: Test E disease control rating; for Test E disease control rating: 200 ppm, 100 = 100% disease control, 0 = no control relative to controls.

On to `Fc1cccc(Nc2cc(-c3ccnc(NCC4CCOC4)n3)ccn2)c1` (stereo not shown) [Compound 82, 4-[2-[(3-fluorophenyl)amino]-4-pyridinyl]-N-[(tetrahydro-3-furanyl)methyl]-2-pyrimidinamine], for which the pest or weed control at 200 ppm in the assay with Septoria tritici turned out to be 68%; in assay [1], 0%; in assay [2], 29%; with Botrytis cinerea, 0%; in the assay on Septoria nodorum, 91%; in assay [3], 98%. In addition, in the assay with Fusarium graminearum, the pest or weed control at 200 ppm is 0%.
Turning to `COCCC(C)Nc1nccc(-c2ccnc(Nc3cccc(F)c3)c2)n1` (stereo not shown) [Compound 84, 4-[2-[(3-fluorophenyl)amino]-4-pyridinyl]-N-(3-methoxy-1-methylpropyl)-2-pyrimidinamine], the pest or weed control at 200 ppm with Septoria tritici worked out at 59%; in assay [1] it was 28%; in assay [2], 0%; in the assay with Botrytis cinerea, 99%; in the assay on Septoria nodorum, 99%; in assay [3], 91%. Moreover, the pest or weed control at 200 ppm with Fusarium graminearum was determined as 0%.
Consider `Cc1cccc(Cl)c1Nc1cc(-c2ccnc(NC3CCOCC3)n2)ccn1` [Compound 80, 4-[2-[(2-chloro-6-methylphenyl)amino]-4-pyridinyl]-N-(tetrahydro-2H-pyran-4-yl)-2-pyrimidinamine], for which the pest or weed control at 200 ppm in the assay with Septoria tritici amounted to 93%; in assay [1] it was 86%; in assay [2], 98%; with Botrytis cinerea it was 99%; with Septoria nodorum it was 99%; in assay [3] it was 100%. In addition, the pest or weed control at 200 ppm in the assay on Fusarium graminearum worked out at 98%.
In the case of `Fc1cccc(Nc2ncnc(-c3ccnc(NC4CCOCC4)n3)n2)c1` [Compound 3], in the assay on Septoria tritici, the “Test D disease control rating” value is 67%. Also, in assay [1], the “Test A disease control rating” value stood at 64%. Also, the “Test I disease control rating” value in assay [2] is 94%. Besides, the “Test F disease control rating” value in the assay with Botrytis cinerea is given as 0%. For the same compound, in the assay on Septoria nodorum, the “Test C disease control rating” value is listed as 100%. Moreover, the “Test B disease control rating” value in assay [3] was determined as 96%. Besides, the “Test E disease control rating” value with Fusarium graminearum is given as 27%.
On to `CCNc1nccc(-c2ccnc(Nc3cccc(F)c3)c2)n1` [Compound 61], for which the “Test D disease control rating” value with Septoria tritici turned out to be 32%. Moreover, in assay [1], the “Test A disease control rating” value is listed as 0%. Besides, the “Test I disease control rating” value in assay [2] is 0%. For the same compound, in the assay with Botrytis cinerea, the “Test F disease control rating” value was determined as 0%. Besides, the “Test C disease control rating” value in the assay with Septoria nodorum is 99%. The “Test B disease control rating” value in assay [3] came to 96%. Moreover, the “Test E disease control rating” value in the assay on Fusarium graminearum is reported as 0%.
As for `COCC(C)Nc1nccc(-c2ccnc(Nc3c(Cl)cccc3C(F)(F)F)c2)n1` (stereo not shown) [Compound 97], the “Test D disease control rating” value in the assay with Septoria tritici turned out to be 67%. Also, the “Test A disease control rating” value in assay [1] is given as 0%. Further, the “Test I disease control rating” value in assay [2] amounted to 93%. Further, the “Test F disease control rating” value in the assay on Botrytis cinerea is listed as 99%. Moreover, in the assay with Septoria nodorum, the “Test C disease control rating” value is reported as 100%. Moreover, the “Test B disease control rating” value in assay [3] is given as 97%. Moreover, the “Test E disease control rating” value in the assay on Fusarium graminearum came to 48%.
With `CSCCNc1nccc(-c2ccnc(Nc3cccc(F)c3)c2)n1` [Compound 55], in the assay on Septoria tritici, the “Test D disease control rating” value was determined as 20%. Besides, in assay [1], the “Test A disease control rating” value is given as 0%. Besides, the “Test I disease control rating” value in assay [2] came out at 0%. Besides, in the assay with Botrytis cinerea, the “Test F disease control rating” value is 0%. For the same compound, in the assay on Septoria nodorum, the “Test C disease control rating” value is on record as 78%. For the same compound, in assay [3], the “Test B disease control rating” value was found to be 95%. Further, the “Test E disease control rating” value in the assay on Fusarium graminearum is listed as 0%.
As to `COCC(C)Nc1nccc(-c2ccnc(Nc3c(C)cccc3OC)c2)n1` (stereo not shown) [Compound 85], in the assay with Septoria tritici, the “Test D disease control rating” value is 0%. In assay [1], the “Test A disease control rating” value was 56%. For the same compound, in assay [2], the “Test I disease control rating” value was 96%. In addition, the “Test F disease control rating” value in the assay with Botrytis cinerea worked out at 93%. The “Test C disease control rating” value in the assay with Septoria nodorum turned out to be 99%. In assay [3], the “Test B disease control rating” value amounted to 94%. Moreover, in the assay on Fusarium graminearum, the “Test E disease control rating” value was determined as 0%.
For the compound `COCC(C)Nc1nccc(-c2ccnc(Nc3c(F)ccc(F)c3F)c2)n1` (stereo not shown) [Compound 70], the “Test D disease control rating” value in the assay on Septoria tritici was determined as 17%. The “Test A disease control rating” value in assay [1] was 95%. In addition, in assay [2], the “Test I disease control rating” value turned out to be 98%. Further, the “Test F disease control rating” value in the assay on Botrytis cinerea came out at 97%. Further, in the assay with Septoria nodorum, the “Test C disease control rating” value is given as 99%. In addition, the “Test B disease control rating” value in assay [3] is given as 98%. Also, the “Test E disease control rating” value in the assay with Fusarium graminearum was 84%.
For `COCC(C)Nc1nccc(-c2ccnc(Nc3ccc(C#N)cc3)c2)n1` (stereo not shown) [Compound 63], the “Test D disease control rating” value with Septoria tritici is 41%. In addition, the “Test A disease control rating” value in assay [1] is 0%. Further, the “Test I disease control rating” value in assay [2] stood at 90%. The “Test F disease control rating” value in the assay on Botrytis cinerea is given as 0%. For the same compound, in the assay with Septoria nodorum, the “Test C disease control rating” value amounted to 0%. Moreover, the “Test B disease control rating” value in assay [3] amounted to 80%. Besides, the “Test E disease control rating” value with Fusarium graminearum was determined as 0%.
Turning to `COCC(C)Nc1nccc(-c2ccnc(Nc3c(Cl)cccc3Cl)c2)n1` (stereo not shown) [Compound 78], in the assay on Septoria tritici, the “Test D disease control rating” value worked out at 60%. The “Test A disease control rating” value in assay [1] came out at 39%. Besides, the “Test I disease control rating” value in assay [2] is 98%. In addition, in the assay with Botrytis cinerea, the “Test F disease control rating” value is 93%. For the same compound, the “Test C disease control rating” value in the assay on Septoria nodorum turned out to be 99%. Also, the “Test B disease control rating” value in assay [3] turned out to be 99%. Further, in the assay on Fusarium graminearum, the “Test E disease control rating” value came to 0%.
Take `Fc1cccc(Nc2cc(-c3ccnc(NC4CCCC4)n3)ccn2)c1` [Compound 62, N-cyclopentyl-4-[2-[(3-fluorophenyl)amino]-4-pyridinyl]-2-pyrimidinamine]: the pest or weed control at 200 ppm in the assay on Septoria tritici worked out at 14%; in assay [1], 0%; in assay [2], 0%; with Botrytis cinerea, 0%; in the assay with Septoria nodorum, 0%; in assay [3], 94%. The pest or weed control at 200 ppm in the assay with Fusarium graminearum is 0%.
As for `Clc1cccc(Nc2cc(-c3ccnc(N[C@H]4CCOC4)n3)ccn2)c1` [Compound 72], in the assay on Septoria tritici, the “Test D disease control rating” value is 11%. Also, the “Test A disease control rating” value in assay [1] is 0%. Moreover, the “Test I disease control rating” value in assay [2] is listed as 0%. Further, the “Test F disease control rating” value in the assay on Botrytis cinerea was 0%. In addition, the “Test C disease control rating” value with Septoria nodorum was 95%. The “Test B disease control rating” value in assay [3] is on record as 80%. For the same compound, the “Test E disease control rating” value in the assay with Fusarium graminearum is 0%.
With `COCC(C)Nc1nccc(-c2ccnc(Nc3c(C)cc(Cl)cc3Cl)c2)n1` (stereo not shown) [Compound 93], in the assay with Septoria tritici, the “Test D disease control rating” value stood at 78%. In assay [1], the “Test A disease control rating” value was 84%. In addition, in assay [2], the “Test I disease control rating” value is 0%. In addition, the “Test F disease control rating” value in the assay on Botrytis cinerea is 98%. For the same compound, the “Test C disease control rating” value in the assay on Septoria nodorum is given as 100%. Besides, the “Test B disease control rating” value in assay [3] is 99%. In addition, the “Test E disease control rating” value in the assay with Fusarium graminearum is 66%.
Turning to `COc1cccc(C)c1Nc1cc(-c2ccnc(NC3CCOCC3)n2)ccn1` [Compound 88], the “Test D disease control rating” value in the assay with Septoria tritici is listed as 0%. Moreover, in assay [1], the “Test A disease control rating” value is listed as 99%. The “Test I disease control rating” value in assay [2] is 0%. For the same compound, the “Test F disease control rating” value in the assay with Botrytis cinerea amounted to 0%. Also, the “Test C disease control rating” value in the assay with Septoria nodorum was 97%. Also, the “Test B disease control rating” value in assay [3] came to 100%. Besides, the “Test E disease control rating” value in the assay on Fusarium graminearum stood at 91%.
Turning to `COCC(C)Nc1nccc(-c2ccnc(Nc3c(C)ccc(Cl)c3C)c2)n1` (stereo not shown) [Compound 92], in the assay with Septoria tritici, the “Test D disease control rating” value is listed as 65%. Also, the “Test A disease control rating” value in assay [1] is 91%. In assay [2], the “Test I disease control rating” value came to 0%. Further, the “Test F disease control rating” value with Botrytis cinerea is given as 99%. For the same compound, the “Test C disease control rating” value in the assay on Septoria nodorum amounted to 100%. Moreover, the “Test B disease control rating” value in assay [3] stood at 94%. Besides, in the assay with Fusarium graminearum, the “Test E disease control rating” value was determined as 0%.
